Experimental data: patent US11504386B2, “Preparation method for various novel fucosyl oligosaccharides and use thereof” (Korea University Research and Business Foundation, priority 2017, dated 2022)

Legend:
E. coli O1:K1:H7 = assay: Capability of pathogenic microorganism to ferment FGal (E. coli); format: cell-based; details: medium with 3 g/L purified FGal, 37° C., FIG. 9
Source text: (§1) To verify the prebiotic effect of FGal, the cell growth of strains such as Bifidobacterium longum subsp. infantis ATCC 15697 and Bifidobacterium bifidum DSM 20082 was monitored. In addition, to conduct a test for the capabilities of pathogenic microorganisms to ferment FGal, the cell growth of strains such as E. coli O1:K1:H7 and Salmonella enterica serovar typhimurium was monitored. At this time, the medium contained 10 g/L of BactoPeptone, 5 g/L of yeast extract, 2 g/L of K2HPO4 (anhydrous), 5 g/L of Na acetate (anhydrous), 2 g/L of NH4 citrate tribasic, 0.2 g/L of Mg sulfate heptahydrate, 0.05 g/L of Mn sulfate, 1 mL/L of Tween 80 (polysorbate 80), 0.5 g/L of cysteine, and 3 g/L of purified FGal, and the strains were cultured at 37° C.

hippocampal neurons = hippocampal neurons (brain neural cells) treated with FGal; stated as known; cited from earlier work
[1] = test system: Salmonella enterica serovar typhimurium; assay: Capability of pathogenic microorganism to ferment FGal (Salmonella); format: cell-based; details: medium with 3 g/L purified FGal, 37° C., FIG. 9
Source text: as §1

[2] = test system: Bifidobacterium longum subsp. infantis ATCC 15697; assay: Prebiotic effect: cell growth and metabolism of FGal by Bifidobacterium longum subsp. infantis; format: cell-based; details: medium with 3 g/L purified FGal, 37° C., FIG. 8
Source text: as §1

[3] = test system: Bifidobacterium bifidum DSM 20082; assay: Prebiotic effect: cell growth and metabolism of FGal by Bifidobacterium bifidum; format: cell-based; details: medium with 3 g/L purified FGal, 37° C., FIG. 8
Source text: as §1

C[C@@H]1O[C@@H](O[C@H]2C(O)O[C@H](CO)[C@H](O)[C@@H]2O)[C@@H](O)[C@H](O)[C@@H]1O (stereo partly shown) [FGal, 2′-fucosylgalactose]
metabolism of FGal by pathogenic microorganism (E. coli O1:K1:H7): unable to metabolize | growth of nerve cells (hippocampal neurons): promotes the growth of nerve cells | metabolism of FGal by pathogenic microorganism [1]: unable to metabolize | metabolism (fermentation) of FGal by the strain [2]: decomposed FGal into galactose and fucose through intracellular fucosidase and used both | metabolism (fermentation) of FGal by the strain ([2]; listed as 2-fucosylgalactose): decomposes 2-fucosylgalactose into galactose and fucose through intracellular fucosidase and uses both | metabolism (fermentation) of FGal by the strain [3]: first decomposed FGal into fucose and galactose extracellularly, and then metabolized a small amount of galactose | metabolism (fermentation) of FGal by the strain ([3]; listed as 2-fucosylgalactose): extracellularly decomposes 2-fucosylgalactose into galactose and fucose, and then uses only galactose
